Test results published in patent publication US7851497B2 (priority 2004, dated 2010).
Structures can show the parent of a compound that is named as a salt. Where two headings read alike, the source gives them in different places.

Tests used:
Format in all cases: in vivo
tomato late blight = tested on: tomato late blight
cucumber downy mildew [1] = experiment: Test on preventive effect against cucumber downy mildew
Description: Cucumber (cultivar: Suyo) was cultivated in a polyethylene pot having a diameter of 7.5 cm, and when the cucumber reached two-leaf stage, a drug solution having the respective test compounds adjusted to the predetermined concentrations, was applied in a sufficient amount (20 ml) by means of a spray gun. After the applied solution dried, the cucumber was sprayed and inoculated with a suspension of spores of cucumber downy mildew and kept in a humidified chamber at 20° C. for 4 hours. Thereafter, the cucumber was kept in a thermostatic chamber at 20° C. for 7 days, whereupon the lesion area ratio in the first leaf was investigated, and the control value was obtained by the following formula. Here, the test was carried out in double series.
The lesion area ratio in non-treated area was obtained in the same manner as in the treated area except that instead of the drug solution, water was applied by means of a spray gun. Control value=(b−a)/b×100 where a is the lesion area ratio in treated area, and b is the lesion area ratio in non-treated area.
(§1) Further, a theoretical value can be calculated by the Colby formula. If the experimental value is higher than the theoretical value by the Colby formula, the fungicidal composition for agricultural or horticultural use of the present invention has a synergistic effect for controlling the plant disease. In this context, the theoretical values by the Colby formula are also shown in brackets ( ) in Table 1.

cucumber downy mildew [2] = experiment: Test on curative effect against cucumber downy mildew
Description: Cucumber (cultivar: Suyo) was cultivated in a polyethylene pot having a diameter of 7.5 cm, and when it reached two-leaf stage, the cucumber was sprayed and inoculated with a suspension of spores of cucumber downy mildew and kept in a humidified chamber at 20° C. for 4 hours. Then, after drying the crop plant, a drug solution having the respective test compounds adjusted to the predetermined concentrations, was applied in a sufficient amount (20 ml) by means of a spray gun. After the sprayed solution dried, it was kept in a thermostatic chamber at 20° C. for 7 days, whereupon the lesion area ratio in the first leaf was investigated, and the control value was obtained by the following formula. Here, the test was carried out in double series.
The lesion area in non-treated area was obtained in the same manner as in the treated area except that instead of the drug solution, water was applied by means of a spray gun. Control value=(b−a)/b×100 where a is the lesion area ratio in treated area, and b is the lesion area ratio in non-treated area.
as §1, with “2.” for “1.”

[3] = propamocarb hydrochloride 1000 ppm alone (Compound No. 1 0 ppm)
[4] = propamocarb hydrochloride 2000 ppm alone (Compound No. 1 0 ppm)
[5] = propamocarb hydrochloride 4000 ppm alone (Compound No. 1 0 ppm)

Row | Compound | Control value in the test on preventive effect against tomato late blight (tomato late blight; [3]) | Control value in the test on preventive effect against tomato late blight (tomato late blight; [4]) | Control value in the test on preventive effect against tomato late blight (tomato late blight; [5]) | Control value in the test on preventive effect against cucumber downy mildew (cucumber downy mildew [1]; [3]) | Control value in the test on preventive effect against cucumber downy mildew (cucumber downy mildew [1]; [4]) | Control value in the test on preventive effect against cucumber downy mildew (cucumber downy mildew [1]; [5]) | Control value in the test on curative effect against cucumber downy mildew (cucumber downy mildew [2]; [3]) | Control value in the test on curative effect against cucumber downy mildew (cucumber downy mildew [2]; [4]) | Control value in the test on curative effect against cucumber downy mildew (cucumber downy mildew [2]; [5]) | Control value in the test on preventive effect against tomato late blight (tomato late blight; Compound No. 1 0.5 ppm alone (propamocarb hydrochloride 0 ppm)) | Control value in the test on preventive effect against cucumber downy mildew (cucumber downy mildew [1]; Compound No. 1 0.03 ppm alone (propamocarb hydrochloride 0 ppm)) | Control value in the test on preventive effect against cucumber downy mildew (cucumber downy mildew [1]; Compound No. 1 0.13 ppm alone (propamocarb hydrochloride 0 ppm)) | Control value in the test on curative effect against cucumber downy mildew (cucumber downy mildew [2]; Compound No. 1 125 ppm alone (propamocarb hydrochloride 0 ppm)) | Control value in the test on curative effect against cucumber downy mildew (cucumber downy mildew [2]; Compound No. 1 500 ppm alone (propamocarb hydrochloride 0 ppm))
1 | CCCOC(=O)NCCCN(C)C [propamocarb hydrochloride] | 0 | 0 | 0 | 0 | 10 | 30 | 10 | 20 | 30 | – | – | – | – | –
2 | Cc1ccc(-c2c(Cl)nc(C#N)n2S(=O)(=O)N(C)C)cc1 [Compound No. 1, 4-Chloro-2-cyano-1-dimethylsulfamoyl-5-(4-methylphenyl)imidazole] | – | – | – | – | – | – | – | – | – | 67 | 0 | 90 | 0 | 90
